Reference: patent publication EP4772520A1, “NOVEL PRODRUG-TYPE ANTICANCER AGENT TARGETING CANCER-SPECIFIC ENZYME ACTIVITY” (priority 2023, dated 2025)

Experiments:
[1] = test system: primary lung squamous cell carcinoma PDX tumor (DLUN013/F_PDX_000162); experiment: Tumor proliferation suppression test in PDX model mice; format: in vivo; conditions: 200 mg/kg i.v., 6 times over 2 weeks
Protocol: With respect to SN38-βGlcNAc showing high sensitivity by the organoid test, an in vivo tumor proliferation suppression test was performed using a primary lung squamous cell carcinoma PDX tumor (DLUN013/F_PDX_000162) established at Fukushima Medical University Medical and Industrial TR Center from the same patient. 200 mg/kg of SN38-βGlcNAc was intravenously administered to PDX subcutaneous tumor model mice a total of 6 times over 2 weeks as shown in the administration schedule (a of Fig. 30), and the tumor proliferation suppression effect was evaluated. The Vehicle (DMSO administration) group and the SN38-βGlcNAc administration group were n = 6, respectively.
A specific procedure of the therapeutic experiment is shown below. • (1) The tube containing the frozen tumor tissue was thawed in a thermostatic water bath at 37°C. […] The SN38-βGlcNAc was prepared by dissolving a 400 mM of DMSO stock in PBS, and was intravenously administered from the tail vein 3 times a week for 2 weeks at a dose of 200 mg/kg with a total amount of 100 µL. • (5) The tumor volume and body weight were measured on the day of evaluation. • (6) The tumor was removed, and then subjected to fluorescence imaging using HMRef-βGlcNAc (50 µM, PBS solution) in the presence and absence of PUGNAc (500 µM), which is an inhibitor of β-hexosaminidase.

[2] = test system: mouse Lewis lung cancer-derived cell line LLC (3LL); experiment: Combination experiment with anti-PD-1 antibody, LLC subcutaneous tumor model; format: in vivo, mice; conditions: anti-PD-1 antibody 100 µg i.p. twice a week, SN38-βGlcNAc 150 mg/kg i.v. three times a week
Protocol: The effect of combination use of an anti-PD-1 antibody and SN38-βGlcNAc used as a main cancer immunotherapy in current lung cancer treatment was examined. Subcutaneous tumor model mice of a mouse Lewis lung cancer-derived cell line LLC (3LL) reported to have sensitivity to the anti-PD-1 antibody were evaluated, and the Vehicle (DMSO) group was n = 8, the anti-PD-1 antibody administration group was n = 5, the SN38-βGlcNAc administration group was n = 6, and the combination use group of the anti-PD-1 antibody and the SN38-βGlcNAc was n = 5. As an antibody, anti-mouse PD-1 antibody Clone RMP1-14 (Leinco Technologies, Inc.) was used. […]
A specific procedure of the therapeutic experiment is shown below. • (1) Hair on the dorsal side from the upper part of the right foot of C57BL/6JJcl (7 weeks old, female) was shaved with a hair clipper, and then LLC cells 2.0 ×10^6 cells (50 µL) were subcutaneously injected. • (2) The drug administration was started to the individual whose tumor volume reached about 50 to 170 mm^3 after 6 days. […] The anti-PD-1 antibody (Clone RMP1-14) was administered by intraperitoneal administration of 100 µg dissolved in 100 µL of PBS. • (3) The body weight was measured on the day of evaluation, and the tumor volume was evaluated with a vernier caliper. • (4) The time point when the tumor volume reached 2000 to 3000 mm^3 was taken as the endpoint.

## CCc1c2c(nc3ccc(O[C@@H]4O[C@H](CO)[C@@H](O)[C@H](O)[C@H]4NC(C)=O)cc13)-c1cc3c(c(=O)n1C2)COC(=O)[C@]3(O)CC [SN38-βGlcNAc]
[1]
  body weight change: No body weight change was observed
[1]; n = 6, vs Vehicle
  tumor proliferation suppression effect (tumor volume): the tumor growth was significantly suppressed
[2]
  body weight: no body weight loss was found in any group
[2]; vs Vehicle
  tumor proliferation suppression (tumor volume): showed tumor proliferation suppression
